What is called melting point is the temperature of the solid-liquid transition. The pEC50 is −log10 of the EC50, conventionally taken in molar units. A high value points to a small EC50.

Experimental findings from US11008323B2, “Substituted tricyclic 1,4-benzodiazepinone derivatives as allosteric modulators of group II metabotropic glutamate receptors” (Domain Therapeutics, priority 2015, dated 2021) are described below.

One data set relates to striatal primary neurons. The data set can be described thus: NMDA-induced neurotoxicity assay on striatal primary neurons (MTT test). The class given is cell-based, mouse. Conditions: 24 hours. As for the experimental part:
Primary mouse neurons were incubated with vehicle or NMDA (60 μM)+vehicle or example 63 or LY379268 (mixed mGluR2/3 agonist used as positive control) for 24 hours. Tests were performed in triplicate. Neuron viability was measured using a MTT test.
In general terms: Tetrazolium dyes change colour on reduction, which living cells bring about.

In the next data set the target is T1, human mGluR3 (hmGluR3) (Homo sapiens, UniProt Q14832).
T1 construct: expressed in transfected cells; host or cells: HEK-293 cells, transient co-transfection by electroporation
T1 sequence (Q14832 23-879): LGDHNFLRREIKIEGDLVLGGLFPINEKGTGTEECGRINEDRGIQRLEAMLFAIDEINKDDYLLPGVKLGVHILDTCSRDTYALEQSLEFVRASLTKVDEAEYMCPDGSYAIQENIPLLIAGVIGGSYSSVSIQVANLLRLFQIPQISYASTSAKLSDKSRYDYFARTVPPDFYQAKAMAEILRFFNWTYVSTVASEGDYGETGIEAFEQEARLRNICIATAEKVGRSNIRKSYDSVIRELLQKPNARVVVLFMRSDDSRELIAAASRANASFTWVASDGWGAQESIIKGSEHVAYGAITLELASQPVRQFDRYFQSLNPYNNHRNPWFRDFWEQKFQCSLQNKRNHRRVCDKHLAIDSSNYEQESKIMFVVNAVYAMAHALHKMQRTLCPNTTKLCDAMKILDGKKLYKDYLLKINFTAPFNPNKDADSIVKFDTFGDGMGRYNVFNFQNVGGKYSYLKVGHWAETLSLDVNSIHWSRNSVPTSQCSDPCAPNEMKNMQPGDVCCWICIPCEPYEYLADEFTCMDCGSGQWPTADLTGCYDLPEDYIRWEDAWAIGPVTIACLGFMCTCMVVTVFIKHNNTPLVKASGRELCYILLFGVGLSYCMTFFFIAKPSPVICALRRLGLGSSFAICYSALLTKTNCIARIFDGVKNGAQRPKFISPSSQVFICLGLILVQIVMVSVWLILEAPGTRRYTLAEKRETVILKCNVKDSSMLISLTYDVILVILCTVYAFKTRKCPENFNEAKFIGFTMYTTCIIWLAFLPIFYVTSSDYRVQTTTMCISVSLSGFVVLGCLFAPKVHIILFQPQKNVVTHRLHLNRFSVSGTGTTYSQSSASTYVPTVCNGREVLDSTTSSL
The data set can be described thus: Human mGluR3 positive allosteric modulator evaluation using Ca++ functional assay. The class given is cell-based. Conditions: hmGluR3 transiently over-expressed in HEK-293 cells; stimulated by EC50 glutamate concentration; intracellular Ca2+ (Fluo4AM, FLIPR Tetra). In short, it runs like this:
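Calcium flux (Fluo4, ex 485/em 525 nm) recorded first 10 min with compound alone, then 3 min after an EC50 glutamate challenge, giving agonist and PAM EC50 from 20-concentration sigmoidal fits. Receptor was transiently co-transfected in HEK-293 with chimeric G protein and glutamate transporters.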

The next data set relates to cortical primary neurons. The data set can be described thus: NMDA-induced neurotoxicity assay on cortical primary neurons (MTT test). Conditions: 24 hours. It is filed as cell-based, mouse. As for the experimental part:
Primary mouse neurons were incubated with vehicle or NMDA (60 μM)+vehicle or example 207 or LY379268 (mixed mGluR2/3 agonist used as positive control) for 24 hours. Tests were performed in triplicate. Neuron viability was measured using a MTT test.

Where [1] appears, read: alone, in absence of NMDA challenge, 30 nM to 30 μM.

pEC50: −log10 of the molar value. Some results are limits rather than exact numbers.

In the case of `CN1C(=O)c2cccn2-c2cc(-c3ccc(F)cn3)ccc2C12CC2` [Example 63, 5-Methyl-9-(5-fluoropyridin-2-yl)-spiro[benzo[f]pyrrolo[1,2-a][1,4]diazepine-6,1′-cyclopropan]-4(5H)-one], the melting point was in the range of 148 to 156 °C. The “toxicity induced by NMDA (neuroprotection), striatal primary neurons” value in the data set on striatal primary neurons (NMDA 60 μM, effect tending to disappear at 30 μM) is listed as “reduces in a dose-dependent manner the toxicity induced by NMDA up to 10 μM”. In addition, in the data set with striatal primary neurons (setting [1]), the “toxicity on striatal primary neuron viability” value is “no toxicity”. For the same compound, the pEC50 on human mGluR3 (hmGluR3) was greater than 7.00.
As for `CN[C@H](CC(=O)O)C(=O)O` [NMDA, N-methyl-D-aspartate], the “reduction of the neuron viability, striatal primary neurons” value in the data set with striatal primary neurons (NMDA 60 μM + vehicle) is on record as roughly 70%. The “reduction of the neuron viability, cortical primary neurons” value with cortical primary neurons (NMDA 60 μM + vehicle) was roughly 50%.
In the case of `COCc1cc2n(c1)-c1cc(-c3ccc(F)nc3)ccc1C1(CC1)N(C)C2=O` [Example 207], the melting point lay within 71 to 80 °C. In the data set on cortical primary neurons (NMDA 60 μM, effect tending to disappear at higher concentrations), the “toxicity induced by NMDA (neuroprotection), cortical primary neurons” value was “reduces in a dose-dependent manner the toxicity induced by NMDA up to 1 μM”. In addition, the “toxicity on cortical primary neuron viability” value in the data set on cortical primary neurons (setting [1]) is “no toxicity”. For the same compound, the negative logarithm of the EC50 (pEC50) at human mGluR3 (hmGluR3) was greater than 7.00.
As to `N[C@@]1(C(=O)O)CO[C@H]2[C@H](C(=O)O)[C@H]21` [LY379268], the “NMDA-induced toxicity, striatal primary neurons” value in the data set with striatal primary neurons (at 1 μM, NMDA 60 μM) is recorded as “decreases NMDA-induced toxicity”. Further, the “toxicity alone, striatal primary neurons” value in the data set with striatal primary neurons (reference alone) is listed as “no toxicity alone”. Further, in the data set on cortical primary neurons (at 1 μM, NMDA 60 μM), the “NMDA-induced toxicity, cortical primary neurons” value was “decreases NMDA-induced toxicity”. Besides, the “toxicity alone, cortical primary neurons” value with cortical primary neurons (reference alone) is listed as “no toxicity alone”.
In turn, `CN1C(=O)c2cccn2-c2cc(-c3ccnn3C)ccc2C12CC2` [Example 30, 5-Methyl-9-(1-methyl-pyrazol-5-yl)-spiro[benzo[f]pyrrolo[1,2-a][1,4]diazepine-6,1′-cyclopropan]-4(5H)-one] had a melting point of 214 to 220 °C. Besides, the negative-log EC50 (pEC50) at human mGluR3 (hmGluR3) was 6.00 to 7.00.
The like results for `[2H]C([2H])([2H])N1C(=O)c2cccn2-c2cc(-c3ccc(F)cn3)ccc2C12CC2` [Example 64, 5-(Methyl-d3)-9-(5-fluoropyridin-2-yl)-spiro[benzo[f]pyrrolo[1,2-a][1,4]diazepine-6,1′-cyclopropan]-4(5H)-one] were, in that order, 138 to 142 °C and greater than 7.00.
The like results for `CN1C(=O)c2cc(-c3ccccc3)nn2-c2ccccc2C12CC2` [Example 138, 5-Methyl-2-phenyl-spiro[benzo[f]pyrazolo[1,5-a][1,4]diazepine-6,1′-cyclopropan]-4(5H)-one] were, in that order, 212 to 218 °C and less than 6.00.
The like results for `CN1C(=O)c2cc(-c3ccccc3)nn2-c2cc(-c3cccc(C(=O)O)c3)ccc2C12CC2` [Example 133, 3-(5-methyl-4-oxo-2-phenyl-4,5-dihydrospiro[benzo[f]pyrazolo[1,5-a][1,4]diazepine-6,1′-cyclopropan]-9-yl)benzoic acid] were, in that order, 211 to 217 °C and greater than 7.00.
As to `CN1C(=O)c2cccn2-c2cc(-c3ccc(C(F)(F)F)cn3)ccc2C12CC2` [Example 69, 5-Methyl-9-(5-trifluoromethylpyridin-2-yl)-spiro[benzo[f]pyrrolo[1,2-a][1,4]diazepine-6,1′-cyclopropan]-4(5H)-one], the melting point was 78 to 89 °C. This compound also showed a negative-log EC50 (pEC50) on human mGluR3 (hmGluR3) of 6.00 to 7.00.
